Assay results from ChEMBL document CHEMBL1154029, “Novel derivatives of ISO-1 as potent inhibitors of MIF biological function” (Bioorg Med Chem Lett, 2009).

What was measured:
[1] = target: T1, Macrophage migration inhibitory factor (Homo sapiens, UniProt P14174); assay: Inhibition of dopachrome tautomerase activity of MIF in human THP1 cells; assay type: cell-based, THP-1
T1 sequence (P14174 whole entry): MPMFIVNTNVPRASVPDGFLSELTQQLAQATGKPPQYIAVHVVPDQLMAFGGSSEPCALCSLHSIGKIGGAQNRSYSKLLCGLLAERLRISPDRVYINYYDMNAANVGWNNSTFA

[2] = target: T1, Macrophage migration inhibitory factor; assay: Inhibition of dopachrome tautomerase activity of human recombinant MIF
[3] = target: T1, Macrophage migration inhibitory factor; assay: Inhibition of spontaneous secretion/release/recognition of MIF from freshly isolated human PBMC by ELISA
[4] = target: T2, Macrophage migration inhibitory factor (Homo sapiens) (UniProt P14174); assay: Inhibition of MIF-induced TNFalpha production in human PBMC at 100 uM by ELISA
T2 sequence (whole entry): T1 sequence (P14174 whole entry)

[5] = target: T2, Macrophage migration inhibitory factor (Homo sapiens); assay: Inhibition of MIF-induced IL1-beta production in human PBMC at 100 uM by ELISA
[6] = target: T2, Macrophage migration inhibitory factor (Homo sapiens); assay: Inhibition of MIF-induced IL6 production in human PBMC at 100 uM by ELISA

Row | IC50 [1] | IC50 [2] | IC50 ([3]; read-out: IC50) | inhibition [4] | inhibition [5] | inhibition [6] | IC50 [3] | SMILES
1 | 0.5 µM | 0.8 µM | 1.5 µM | 31% | 22% | 22% | – | O=C1c2ccccc2C(=O)N1CCC1CC(c2ccc(O)c(F)c2)=NO1 (centres undefined)
2 | 20 µM | 32 µM | – | – | – | – | Not Active | COc1ccc(C2=NOC(c3noc(-c4cccc(OC)c4OC)n3)C2)cc1F (centres undefined)
3 | > 100 µM | – | – | – | – | – | – | CC(C)(C)C(=O)NCC1CC(c2ccc(O)c(F)c2)=NO1 (centres undefined)
4 | – | – | – | 25% | 25% | 0% | – | COC(=O)CC1CC(c2ccc(O)cc2)=NO1 (centres undefined)
5 | 25 µM | > 100 µM | – | – | – | – | Not Active | O=C(CCc1nc(C2CC(c3ccc(O)c(F)c3)=NO2)no1)NC1CCCCC1 (centres undefined)
6 | 29 µM | 22 µM | 20 µM | 53% | 58% | 47% | – | CC(C)CC(=O)NCCC1CC(c2ccc(O)c(F)c2)=NO1 (centres undefined)
7 | 50 µM | > 100 µM | – | – | – | – | Not Active | COC(=O)CCc1nc(C2CC(c3ccc(O)c(F)c3)=NO2)no1 (centres undefined)
8 | 12 µM | > 100 µM | 60 µM | – | – | – | – | COc1ccc(C2=NOC(c3noc(CCC(=O)O)n3)C2)cc1F (centres undefined)
9 | 29 µM | 36 µM | – | – | – | – | Not Active | O=C1c2ccccc2C(=O)N1CC1CC(c2ccc(O)c(F)c2)=NO1 (centres undefined)
10 | 60 µM | > 100 µM | – | – | – | – | – | Cc1nc(C2CC(c3ccc(O)c(F)c3)=NO2)no1 (centres undefined)
11 | 60 µM | > 100 µM | – | – | – | – | – | Oc1ccc(C2=NOC(c3noc(C(F)(F)F)n3)C2)cc1F (centres undefined)
12 | 19 µM | > 100 µM | – | – | – | – | Not Active | Oc1ccc(C2=NOC(c3noc(-c4cccc(O)c4O)n3)C2)cc1F (centres undefined)
13 | > 100 µM | 55 µM | – | – | – | – | – | COc1ccc(C2=NOC(Cc3noc(C(F)(F)F)n3)C2)cc1F (centres undefined)
14 | 100 µM | 95 µM | – | – | – | – | – | COc1ccc(C2=NOC(c3noc(C(F)(F)F)n3)C2)cc1F (centres undefined)
15 | – | – | – | 34% | 46% | 33% | – | Oc1ccc(C2=NOC(Cc3noc(C(F)(F)F)n3)C2)cc1F (centres undefined)
16 | 15 µM | 50 µM | 20 µM | 39% | 27% | 14% | – | O=C1CCC(=O)N1CCC1CC(c2ccc(O)c(F)c2)=NO1 (centres undefined)
17 | 49 µM | > 100 µM | 15 µM | 53% | 66% | 49% | – | O=C(NCCC1CC(c2ccc(O)c(F)c2)=NO1)C(F)(F)F (centres undefined)
18 | 15 µM | 20 µM | 10 µM | 56% | 52% | 54% | – | O=C(NCCC1CC(c2ccc(O)c(F)c2)=NO1)c1ccc(F)cc1 (centres undefined)
19 | > 100 µM | – | – | – | – | – | – | CN(C)C(=O)NCC1CC(c2ccc(O)c(F)c2)=NO1 (centres undefined)
20 | > 100 µM | – | – | – | – | – | – | CC(C)CC(=O)NCC1CC(c2ccc(O)c(F)c2)=NO1 (centres undefined)
21 | 30 µM | 9.5 µM | – | – | – | – | Not Active | COc1ccc(C2=NOC(c3noc(CCC(=O)NC4CCCCC4)n3)C2)cc1F (centres undefined)
22 | 2 µM | 7 µM | – | – | – | – | Not Active | O=C1c2ccccc2C(=O)N1CCCC1CC(c2ccc(O)c(F)c2)=NO1 (centres undefined)
23 | > 100 µM | – | – | – | – | – | – | COc1ccc(C2=NOC(c3noc(-c4ccccc4N(C)C(=O)O)n3)C2)cc1F (centres undefined)
24 | > 100 µM | – | – | – | – | – | – | COc1ccc(C2=NOC(c3noc(C)n3)C2)cc1F (centres undefined)
25 | 28 µM | 22 µM | 15 µM | 40% | 50% | 39% | – | CC(C)(C)C(=O)NCCC1CC(c2ccc(O)c(F)c2)=NO1 (centres undefined)
